Assay results as given in ChEMBL document CHEMBL1136174, “Synthesis and antimycobacterial activity of capuramycin analogues. Part 1: substitution of the azepan-2-one moiety of capuramycin” (Bioorg Med Chem Lett, 2003).
≈ marks a conversion by molar mass, not a printed value.

What was measured:
[1] = tested on: Mycolicibacterium smegmatis; experiment: Antimycobacterial activity against Mycobacterium smegmatis (SANK 75075); format: functional
[2] = target: T1, Phospho-N-acetylmuramoyl-pentapeptide-transferase (Escherichia coli K-12, UniProt P0A6W3); experiment: Inhibitory activity against translocase I
T1 sequence (P0A6W3 whole entry): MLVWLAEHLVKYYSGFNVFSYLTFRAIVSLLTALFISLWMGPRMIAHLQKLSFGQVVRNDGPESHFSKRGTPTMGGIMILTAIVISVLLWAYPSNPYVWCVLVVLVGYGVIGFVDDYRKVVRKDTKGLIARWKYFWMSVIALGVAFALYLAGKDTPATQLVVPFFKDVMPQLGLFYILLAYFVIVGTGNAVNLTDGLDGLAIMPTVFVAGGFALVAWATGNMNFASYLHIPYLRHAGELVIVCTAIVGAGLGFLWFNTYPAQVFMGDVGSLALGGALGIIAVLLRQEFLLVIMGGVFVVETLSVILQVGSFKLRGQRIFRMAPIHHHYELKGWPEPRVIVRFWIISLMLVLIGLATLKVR

| Compound | MIC [1] | IC50 [2] |
| --- | --- | --- |
| CO[C@H]1[C@@H](O)[C@H](n2ccc(=O)[nH]c2=O)O[C@@H]1[C@@H](O[C@H]1OC(C(=O)NCc2ccco2)=C[C@H](O)[C@@H]1O)C(N)=O | 100 µg/mL (≈ 186 µM) | 520 nM |
| CO[C@H]1[C@@H](O)[C@H](n2ccc(=O)[nH]c2=O)O[C@@H]1[C@@H](O[C@H]1OC(C(=O)Nc2ccc(C(F)(F)F)cc2)=C[C@H](O)[C@@H]1O)C(N)=O | 12.5 µg/mL (≈ 20.7 µM) |  |
| CCc1ccc(NC(=O)C2=C[C@H](O)[C@H](O)[C@@H](O[C@@H](C(N)=O)[C@H]3O[C@@H](n4ccc(=O)[nH]c4=O)[C@H](O)[C@@H]3OC)O2)cc1 | 12.5 µg/mL (≈ 22.2 µM) | 35.6 nM |
| CO[C@H]1[C@@H](O)[C@H](n2ccc(=O)[nH]c2=O)O[C@@H]1[C@@H](O[C@H]1OC(C(=O)NCc2ccc(C)cc2)=C[C@H](O)[C@@H]1O)C(N)=O | 50 µg/mL (≈ 88.9 µM) | 2130 nM |
| CO[C@H]1[C@@H](O)[C@H](n2ccc(=O)[nH]c2=O)O[C@@H]1[C@@H](O[C@H]1OC(C(=O)NCCc2cccs2)=C[C@H](O)[C@@H]1O)C(N)=O | 25 µg/mL (≈ 44 µM) | 22.9 nM |
| CO[C@H]1[C@@H](O)[C@H](n2ccc(=O)[nH]c2=O)O[C@@H]1[C@@H](O[C@H]1OC(C(=O)N2CCCC2)=C[C@H](O)[C@@H]1O)C(N)=O | > 100 µg/mL | 820 nM |
| CO[C@H]1[C@@H](O)[C@H](n2ccc(=O)[nH]c2=O)O[C@@H]1[C@@H](O[C@H]1OC(C(=O)NCCc2ccc(F)cc2)=C[C@H](O)[C@@H]1O)C(N)=O | 12.5 µg/mL (≈ 21.5 µM) | 37.9 nM |
| COc1ccccc1CCNC(=O)C1=C[C@H](O)[C@H](O)[C@@H](O[C@@H](C(N)=O)[C@H]2O[C@@H](n3ccc(=O)[nH]c3=O)[C@H](O)[C@@H]2OC)O1 | 50 µg/mL (≈ 84.4 µM) | 54 nM |
| CO[C@H]1[C@@H](O)[C@H](n2ccc(=O)[nH]c2=O)O[C@@H]1[C@@H](O[C@H]1OC(C(=O)NCc2ccccc2C)=C[C@H](O)[C@@H]1O)C(N)=O | 12.5 µg/mL (≈ 22.2 µM) | 889 nM |
| CCCCCCNC(=O)C1=C[C@H](O)[C@H](O)[C@@H](O[C@@H](C(N)=O)[C@H]2O[C@@H](n3ccc(=O)[nH]c3=O)[C@H](O)[C@@H]2OC)O1 | 12.5 µg/mL (≈ 23 µM) | 55.3 nM |
| CO[C@H]1[C@@H](O)[C@H](n2ccc(=O)[nH]c2=O)O[C@@H]1[C@@H](O[C@H]1OC(C(=O)Nc2cccc(F)c2F)=C[C@H](O)[C@@H]1O)C(N)=O | 12.5 µg/mL (≈ 21.9 µM) | 22.8 nM |
| CO[C@H]1[C@@H](O)[C@H](n2ccc(=O)[nH]c2=O)O[C@@H]1[C@@H](O[C@H]1OC(C(=O)N(C)c2ccccc2)=C[C@H](O)[C@@H]1O)C(N)=O | > 100 µg/mL | > 4560 nM |
| CO[C@H]1[C@@H](O)[C@H](n2ccc(=O)[nH]c2=O)O[C@@H]1[C@@H](O[C@H]1OC(C(=O)NCc2cccs2)=C[C@H](O)[C@@H]1O)C(N)=O | 50 µg/mL (≈ 90.2 µM) | 139 nM |
| CO[C@H]1[C@@H](O)[C@H](n2ccc(=O)[nH]c2=O)O[C@@H]1[C@@H](O[C@H]1OC(C(=O)NCCCCO)=C[C@H](O)[C@@H]1O)C(N)=O | > 100 µg/mL | 320 nM |
| CO[C@H]1[C@@H](O)[C@H](n2ccc(=O)[nH]c2=O)O[C@@H]1[C@@H](O[C@H]1OC(C(=O)NCCO)=C[C@H](O)[C@@H]1O)C(N)=O | > 100 µg/mL | 179 nM |
| CO[C@H]1[C@@H](O)[C@H](n2ccc(=O)[nH]c2=O)O[C@@H]1[C@@H](O[C@H]1OC(C(=O)NCCc2ccc(C)cc2)=C[C@H](O)[C@@H]1O)C(N)=O | 50 µg/mL (≈ 86.7 µM) | 59 nM |
| CO[C@H]1[C@@H](O)[C@H](n2ccc(=O)[nH]c2=O)O[C@@H]1[C@@H](O[C@H]1OC(C(=O)NCCc2ccc(O)cc2)=C[C@H](O)[C@@H]1O)C(N)=O | 50 µg/mL (≈ 86.4 µM) | 104 nM |
| CO[C@H]1[C@@H](O)[C@H](n2ccc(=O)[nH]c2=O)O[C@@H]1[C@@H](O[C@H]1OC(C(=O)NCc2ccccc2)=C[C@H](O)[C@@H]1O)C(N)=O | 50 µg/mL (≈ 91.2 µM) | 219 nM |
| CCCCCCCCCCCCNC(=O)C1=C[C@H](O)[C@H](O)[C@@H](O[C@@H](C(N)=O)[C@H]2O[C@@H](n3ccc(=O)[nH]c3=O)[C@H](O)[C@@H]2OC)O1 | 25 µg/mL (≈ 39.9 µM) | 622 nM |
| CCCCCCCCCCNC(=O)C1=C[C@H](O)[C@H](O)[C@@H](O[C@@H](C(N)=O)[C@H]2O[C@@H](n3ccc(=O)[nH]c3=O)[C@H](O)[C@@H]2OC)O1 | 25 µg/mL (≈ 41.8 µM) | 434 nM |

| Compound | MIC [1] | IC50 [2] |
| --- | --- | --- |
| COc1cc(CNC(=O)C2=C[C@H](O)[C@H](O)[C@@H](O[C@@H](C(N)=O)[C@H]3O[C@@H](n4ccc(=O)[nH]c4=O)[C@H](O)[C@@H]3OC)O2)cc(OC)c1OC | > 100 µg/mL | 658 nM |
| CO[C@H]1[C@@H](O)[C@H](n2ccc(=O)[nH]c2=O)O[C@@H]1[C@@H](O[C@H]1OC(C(=O)Nc2ccc([N+](=O)[O-])cc2)=C[C@H](O)[C@@H]1O)C(N)=O | 25 µg/mL (≈ 43.1 µM) | 69 nM |
| CO[C@H]1[C@@H](O)[C@H](n2ccc(=O)[nH]c2=O)O[C@@H]1[C@@H](O[C@H]1OC(C(=O)Nc2nncs2)=C[C@H](O)[C@@H]1O)C(N)=O | > 100 µg/mL | 194 nM |
| CCc1ccccc1NC(=O)C1=C[C@H](O)[C@H](O)[C@@H](O[C@@H](C(N)=O)[C@H]2O[C@@H](n3ccc(=O)[nH]c3=O)[C@H](O)[C@@H]2OC)O1 | 50 µg/mL (≈ 88.9 µM) | 96 nM |
| CO[C@H]1[C@@H](O)[C@H](n2ccc(=O)[nH]c2=O)O[C@@H]1[C@@H](O[C@H]1OC(C(=O)Nc2nc(C(C)(C)C)cs2)=C[C@H](O)[C@@H]1O)C(N)=O | 100 µg/mL (≈ 167 µM) | 25.1 nM |
| CO[C@H]1[C@@H](O)[C@H](n2ccc(=O)[nH]c2=O)O[C@@H]1[C@@H](O[C@H]1OC(C(=O)NCCc2ccc(Cl)cc2)=C[C@H](O)[C@@H]1O)C(N)=O | 25 µg/mL (≈ 41.9 µM) | 33.5 nM |
| CO[C@H]1[C@@H](O)[C@H](n2ccc(=O)[nH]c2=O)O[C@@H]1[C@@H](O[C@H]1OC(C(=O)NCC(c2ccccc2)c2ccccc2)=C[C@H](O)[C@@H]1O)C(N)=O | > 100 µg/mL | 204 nM |
| CO[C@H]1[C@@H](O)[C@H](n2ccc(=O)[nH]c2=O)O[C@@H]1[C@@H](O[C@H]1OC(C(=O)NCCN)=C[C@H](O)[C@@H]1O)C(N)=O | 100 µg/mL (≈ 199 µM) | 1200 nM |
| CO[C@H]1[C@@H](O)[C@H](n2ccc(=O)[nH]c2=O)O[C@@H]1[C@@H](O[C@H]1OC(C(=O)NCCc2cccc(Cl)c2)=C[C@H](O)[C@@H]1O)C(N)=O | 12.5 µg/mL (≈ 20.9 µM) | 33.5 nM |
| CO[C@H]1[C@@H](O)[C@H](n2ccc(=O)[nH]c2=O)O[C@@H]1[C@@H](O[C@H]1OC(C(=O)NCCCSC)=C[C@H](O)[C@@H]1O)C(N)=O | 50 µg/mL (≈ 91.5 µM) | 128 nM |
| COc1ccc(CCNC(=O)C2=C[C@H](O)[C@H](O)[C@@H](O[C@@H](C(N)=O)[C@H]3O[C@@H](n4ccc(=O)[nH]c4=O)[C@H](O)[C@@H]3OC)O2)cc1OC | 50 µg/mL (≈ 80.3 µM) | 40.2 nM |
| CO[C@H]1[C@@H](O)[C@H](n2ccc(=O)[nH]c2=O)O[C@@H]1[C@@H](O[C@H]1OC(C(=O)Nc2nccs2)=C[C@H](O)[C@@H]1O)C(N)=O | 25 µg/mL (≈ 46.2 µM) | 33.2 nM |
| CO[C@H]1[C@@H](O)[C@H](n2ccc(=O)[nH]c2=O)O[C@@H]1[C@@H](O[C@H]1OC(C(=O)NC2CCCCCC2)=C[C@H](O)[C@@H]1O)C(N)=O | 25 µg/mL (≈ 45.1 µM) | 48.7 nM |
| CO[C@H]1[C@@H](O)[C@H](n2ccc(=O)[nH]c2=O)O[C@@H]1[C@@H](O[C@H]1OC(C(=O)NC2CCCCC2)=C[C@H](O)[C@@H]1O)C(N)=O | 12.5 µg/mL (≈ 23.1 µM) | 55.5 nM |
| COc1ccccc1NC(=O)C1=C[C@H](O)[C@H](O)[C@@H](O[C@@H](C(N)=O)[C@H]2O[C@@H](n3ccc(=O)[nH]c3=O)[C@H](O)[C@@H]2OC)O1 | 25 µg/mL (≈ 44.3 µM) | 54.9 nM |
| CO[C@H]1[C@@H](O)[C@H](n2ccc(=O)[nH]c2=O)O[C@@H]1[C@@H](O[C@H]1OC(C(=O)Nc2ccc(C)cc2)=C[C@H](O)[C@@H]1O)C(N)=O | 12.5 µg/mL (≈ 22.8 µM) | 23.7 nM |
| CCCCCCCCCCCCCCNC(=O)C1=C[C@H](O)[C@H](O)[C@@H](O[C@@H](C(N)=O)[C@H]2O[C@@H](n3ccc(=O)[nH]c3=O)[C@H](O)[C@@H]2OC)O1 | > 50 µg/mL | > 3820 nM |
| CO[C@H]1[C@@H](O)[C@H](n2ccc(=O)[nH]c2=O)O[C@@H]1[C@@H](O[C@H]1OC(C(=O)NCCc2ccccc2Cl)=C[C@H](O)[C@@H]1O)C(N)=O | 25 µg/mL (≈ 41.9 µM) | 46.9 nM |
| CCCc1ccc(NC(=O)C2=C[C@H](O)[C@H](O)[C@@H](O[C@@H](C(N)=O)[C@H]3O[C@@H](n4ccc(=O)[nH]c4=O)[C@H](O)[C@@H]3OC)O2)cc1 | 12.5 µg/mL (≈ 21.7 µM) | 53.8 nM |
